The source of these data is US20260101897A1, “PLANT ENVIRONMENTAL STRESS TOLERANCE IMPROVEMENT AGENT AND ENVIRONMENTAL STRESS TOLERANCE IMPROVEMENT METHOD” (priority 2022, published 2026).

What all share (assay type): in vivo
Data set [1] deals with Arabidopsis thaliana (Col-0). The data set is described as follows: Evaluation Example 2: tolerance to drying stress, plant mortality. On the procedure:
A commercially available EGT was used, and pure water was used as a solvent.
One individual Arabidopsis thaliana (Col-0) was seeded in a plastic pot having a diameter of 60 mm and a height of 55 mm. Plastic deep dishes each having a diameter of 160 mm and a height of 28 mm were prepared, and six pots were respectively placed therein. As soil, 45 mL of vermiculite, 22.5 mL of granular soil (Kumiai horticultural soil), and 22.5 mL of vermiculite were placed in the pot in this order.
They were located in a growth chamber set at room temperature of 22° C., and the light period was 16 hours and the dark period was 8 hours. The light conditions were set such that the light intensity was 5000 lx in the central part under irradiation with the fluorescent lamp. Water supply was conducted from the bottom, and the water level was set at about 5 mm. EGT in an amount of 50 mL was added on the 22nd day after seeding, and drying stress was applied by stopping water supply for 18 days from 2 days after the addition of EGT.
The number of surviving plants was counted 18 days after the stoppage of water, and the plant mortality rate was evaluated as an index of physiological disorder. The mortality rate and the environmental stress suppressing rate were calculated according to the following formulas.

The next data set relates to soybean plant. Nature of the data set: Evaluation Example 6: tolerance to drying stress, leaf mortality. As to conditions: for Leaf mortality rate / Environmental stress suppressing rate: drying stress Yes; for Leaf mortality rate: 7 days after stoppage of water. On the procedure: EGT and GB were commercially available products, and pure water was used as a solvent. In a 60 mm square plastic pot having a height of 66 mm, 150 ml of granular soil (Kumiai horticultural soil) was placed, and one individual soybean plant was seeded per pot. They were managed in a greenhouse set at room temperature of 25° C. EGT in an amount of 50 mL or GB in an amount of 50 mL was added on the 23rd day after seeding, and drying stress was applied by stopping water supply for 7 days after the addition of EGT or GB. Dead leaves were counted 7 days after the stoppage of water, and the leaf mortality rate was evaluated as an index of physiological disorder. The leaf mortality rate and the environmental stress suppressing rate were calculated according to the following formulas. [formula] [formula]

A further data set has as its system turf (Manila grass). Nature of the data set: Evaluation Example 8: tolerance to drying stress, leaf mortality. As to conditions: for Leaf mortality rate: test compound 0.1 mM (12.5 mL), water supply stopped 7 days twice; for Leaf mortality rate / Environmental stress suppressing rate: drying stress Yes; for Environmental stress suppressing rate: test compound 0.1 mM. How it is done:
EGT and GB were commercially available products, and pure water was used as a solvent.
In a plastic pot having a diameter of 135 mm and a height of 110 mm, 1 L of a raising seedling culture soil (manufactured by Kanetaki Co., Ltd.) was placed, and 100 mm square of turf (Manila grass) was planted per pot.
They were managed in a greenhouse set at room temperature of 25° C. 12.5 mL of EGT or 12.5 mL of GB was added about one month after planting, and water supply was stopped for 7 days thereafter. After cultivation under water supply for 7 days, drying stress was applied by stopping water supply for 7 days again.
The dead leaves of turf to which the drying stress was applied were counted, and the leaf mortality rate was evaluated as an index of physiological disorder. The leaf mortality rate and the environmental stress suppressing rate were calculated according to the following formulas.

In data set [2] the test system is Arabidopsis thaliana (Col-0). Nature of the data set: Evaluation Example 12: tolerance to intense light stress, leaf whitening. The settings on record: for Leaf whitening rate: test compound 0.1 mM (12.5 mL), intense light stress Yes (LED light, 24 hours); for Environmental stress suppressing rate: test compound 0.1 mM, intense light stress Yes. On the procedure: EGT and GB were commercially available products, and pure water was used as a solvent. In a plastic pot having a diameter of 60 mm and a height of 55 mm, 90 mL of culture soil (manufactured by Hanagokoro Co., Ltd.) was placed, and 4 individual Arabidopsis thaliana (Col-0) were seeded per pot. They were located in a growth chamber set at room temperature of 22° C., and the light period was 16 hours and the dark period was 8 hours. The light conditions were set such that the light intensity was 5000 lx in the central part under irradiation with the fluorescent lamp. 12.5 mL of EGT or 12.5 mL of GB was added on the 43rd day after seeding, and one day after that, intense light stress was applied by exposure for 24 hours under irradiation of LED light (manufactured by Esbaybulbs Co., Ltd.) with a light intensity set to 2000 μmol/m 2/sec. Whitened leaves of Arabidopsis thaliana subjected to intense light stress were counted, and the leaf whitening rate was evaluated as an index of physiological disorder. The leaf whitening rate and the environmental stress suppressing rate were calculated according to the following formulas. [formula] [formula]

Data set [3] relates to strawberry (wild strawberry). The data set is described as follows: Evaluation Example 14: tolerance to freezing stress, plant mortality. The settings on record: for Environmental stress suppressing rate: freezing stress Yes. How it is done:
EGT (Example 18, Comparative Example 60) or GB (Comparative Examples 59 and 61) was prepared so as to have the concentration shown in Table 14 below. EGT and GB were commercially available products, and pure water was used as a solvent.
5 mL of pure water was added to 9-cm petri dishes on which filter paper was placed, and 10 seeds of strawberry (wild strawberry) were seeded per dish. They were located in a growth chamber set at room temperature of 22° C., and the light period was 16 hours and the dark period was 8 hours. The light conditions were set such that the light intensity was 5000 lx in the central part under irradiation with the fluorescent lamp.
On the 15th day after seeding, pure water in the petri dish was removed, and then 5 mL of EGT or 5 mL of GB was added, and 9 days after that, freezing stress was applied by exposure to an environment of −20° C. for 20 minutes.
The surviving plants were counted 3 days after the freezing stress was applied, and the mortality rate of the plants was evaluated as an index of physiological disorder. The mortality rate and the environmental stress suppressing rate were calculated according to the following formulas.

Setting [4] is: test compound 0.1 mM (5 mL), freezing stress Yes (−20° C. for 20 minutes), 3 days after stress.
Where [5] appears, read: test compound 0.1 mM, freezing stress No.

With `C[N+](C)(C)[C@@H](Cc1c[nH]c(=S)[nH]1)C(=O)[O-]` [EGT, L-(+)-ergothioneine], the “survival under drying stress, result in words” value in data set [1] (EGT 1 mM, drying stress) is given as “all Arabidopsis thaliana plants survived”. In addition, the Mortality rate in data set [1] (test compound 1 mM (50 mL), drying stress Yes, water supply stopped 18 days) came out at 0%; in data set [3] (setting [4]) it was 29%; in data set [3] (setting [5]) it was 0%. Moreover, the “Environmental stress suppressing rate” value in data set [1] (test compound 1 mM, drying stress Yes) is listed as 100%; in the data set with soybean plant (test compound 0.1 mM) it was 11%; with soybean plant (test compound 1 mM), 39%; in the data set on turf (Manila grass), 65%; in data set [2], 78%; in data set [3] (test compound 0.1 mM), 54%. The results for the Leaf mortality rate in the data set on soybean plant (test compound 0.1 mM (50 mL)), in the data set with soybean plant (test compound 1 mM (50 mL)) and in the data set with turf (Manila grass) were 55%, 38% and 35%, respectively. The same compound came in with a Leaf whitening rate in data set [2] of 8%.

Consider `C[N+](C)(C)CC(=O)[O-]` [GB, glycine betaine, reference compound], for which the “mortality rate due to drying stress, result in words” value with soybean plant (GB 1 mM and 0.1 mM, drying stress) is “not suppressed”; with turf (Manila grass) (0.1 mM, drying stress) it was “not suppressed”. For the same compound, the Leaf mortality rate with soybean plant (test compound 0.1 mM (50 mL)) is listed as 71%; with soybean plant (test compound 1 mM (50 mL)), 62%; in the data set with turf (Manila grass) it was 100%. In addition, the “Environmental stress suppressing rate” value (in the data set on soybean plant (test compound 0.1 mM); in the data set on soybean plant (test compound 1 mM); in the data set on turf (Manila grass); in data set [2]; in data set [3] (test compound 0.1 mM)) was 0% in each case. In addition, in data set [2] (0.1 mM, intense light stress), the “leaf whitening due to intense light stress, result in words” value is “not suppressed”. Besides, the Leaf whitening rate in data set [2] worked out at 40%. Besides, the “mortality rate due to freezing stress, result in words” value in data set [3] (0.1 mM, freezing stress) is on record as “not suppressed”. The Mortality rate is 63% in data set [3] (setting [4]) and 0% in data set [3] (setting [5]).
